# Data reported in publication PMC11078746 (Nature, 2024).
# Where “and” joins values, the source holds several entries; their conditions need not be identical. Equal entries are not always repeated. Where two headings read alike, the source gives them in different places.
# Tests used:
# IM95 = assay: 4 day proliferation assay (CellTiter-Glo); details: Homo sapiens, IM95, 96 h, read-out: 4 day assay GI50
# [1] = HRO761 blood PK in SW48 tumour-bearing mice; type: in vivo, mouse; details: for concentration at 4 h / concentration at 8 h / concentration at 0.5 h / concentration at 1 h / concentration at 2 h / concentration at 24 h / AUC: female, whole blood; for concentration at 4 h / concentration at 8 h / concentration at 0.5 h / concentration at 1 h / concentration at 2 h / concentration at 24 h: Free HRO761 blood concentration
# Experimental: All animal studies were conducted in accordance with ethics and procedures covered by permit BS-2275 and BS-1975 issued by the Kantonales Veterinäramt Basel-Stadt and in strict adherence to guidelines of the Eidgenössisches Tierschutzgesetz and the Eidgenössische Tierschutzverordnung, Switzerland. All animal studies were approved by the internal ethics committee. All animals had access to food and water ad libitum and were identified with transponders. They were housed in a specific-pathogen-free facility in IVC racks under a 12 h–12 h light–dark cycle. To establish cell-line-derived xenograft models, 6–7-week-old female athymic nude (Crl:NU(NCr)-Foxn1^nu) or SCID-BEIGE (CB17.Cg-PrkdcscidLystbg-J/Crl) mice from Charles River were engrafted subcutaneously with 5 million tumour cells in HBSS (H6648, Sigma-Aldrich). For SNU-407, Lovo, IM95, RL95.2, Ishikawa and IGROV-1, the cells were concentrated in 50% Matrigel (354234, Corning). Patient-derived xenografts were induced and expanded by transplantation as previously described. […] For the efficacy experiment, mice were randomized into groups (n = 5–6) for a mean tumour size of 100–150 mm^3. […] Blood samples were collected on day 7 and 91. […] Tumour responses are reported with the measures of tumour volumes from the treatment start. […] Animals were randomized (n = 3) and tumour samples were collected at 0, 1, 4, 8 and 24 h on the first day and then collected 4 h after the last treatment on day 3, 8, 10, 14 (including a 24 h timepoint), 17 and 21. Tumours were excised, weighed, either frozen in liquid nitrogen and cryogenic dry pulverized with the CryoPrep system (model CP-02, Covaris) or processed to FFPE after fixation. […] On day 12, blood samples were collected for PK analysis. On the last day (3 h after the last treatment), tumours were excised, weighed, frozen in liquid nitrogen and cryogenic dry pulverized for PD analysis.
# PK parameters were determined by non-compartmental analysis. Intravenous bolus studies in mouse, rat and dog were performed at 1, 1 and 0.1 mg per kg respectively (Extended Data Table 1).
structure (smiles),measurement,setting,value
CCc1c(N2CCN(C(=O)c3ncnc(C)c3O)CC2)c(=O)n2nc(C3=CCOCC3)nc2n1CC(=O)Nc1ccc(C(F)(F)F)cc1Cl [HRO761],GI50,IM95,2.01 µM
same,Free HRO761 blood concentration,"[1]; 20mg/kg po, qd, 0.5 h post treatment, single mouse",1.505 µM and 0.703 µM and 1.278 µM
same,Free HRO761 blood concentration,"[1]; 20mg/kg po, qd, 1 h, single mouse",0.984 µM and 0.274 µM and 0.743 µM
same,Free HRO761 blood concentration,"[1]; 20mg/kg po, qd, 2 h, single mouse",0.245 µM and 0.085 µM and 0.166 µM
same,Free HRO761 blood concentration,"[1]; 20mg/kg po, qd, 4 h, single mouse",0.104 µM and 0.131 µM
same,Free HRO761 blood concentration,"[1]; 20mg/kg po, qd, 8 h, single mouse",0.145 µM and 0.122 µM
same,Free HRO761 blood concentration,"[1]; 20mg/kg po, qd, 24 h, single mouse",0.008 µM and 0.006 µM and 0.002 µM
same,Free HRO761 blood concentration,"[1]; 40mg/kg, 0.5 h, single mouse",3.970 µM and 2.544 µM
same,Free HRO761 blood concentration,"[1]; 40mg/kg, 1 h, single mouse",2.426 µM and 1.276 µM
same,Free HRO761 blood concentration,"[1]; 40mg/kg, 2 h, single mouse",0.355 µM and 0.442 µM and 0.166 µM
same,Free HRO761 blood concentration,"[1]; 40mg/kg, 4 h, single mouse",0.164 µM and 0.089 µM
same,Free HRO761 blood concentration,"[1]; 40mg/kg, 8 h, single mouse",0.251 µM and 0.168 µM
same,Free HRO761 blood concentration,"[1]; 40mg/kg, 24 h, single mouse",0.004 µM and 0.015 µM and 0.019 µM
same,Free HRO761 blood concentration,"[1]; 60mg/kg, 0.5 h, single mouse",5.178 µM and 5.802 µM and 12.609 µM
same,Free HRO761 blood concentration,"[1]; 60mg/kg, 1 h, single mouse",2.372 µM and 2.688 µM and 8.368 µM
same,Free HRO761 blood concentration,"[1]; 60mg/kg, 2 h, single mouse",0.484 µM and 0.423 µM and 1.801 µM
same,Free HRO761 blood concentration,"[1]; 60mg/kg, 4 h, single mouse",0.455 µM and 0.299 µM and 0.197 µM
same,Free HRO761 blood concentration,"[1]; 60mg/kg, 8 h, single mouse",0.237 µM and 0.241 µM
same,Free HRO761 blood concentration,"[1]; 60mg/kg, 24 h, single mouse",0.050 µM and 0.025 µM and 0.021 µM
same,Free HRO761 blood concentration,"[1]; 120mg/kg, 0.5 h, single mouse",17.511 µM and 15.342 µM
same,Free HRO761 blood concentration,"[1]; 120mg/kg, 1 h, single mouse",10.912 µM and 17.320 µM
same,Free HRO761 blood concentration,"[1]; 120mg/kg, 2 h, single mouse",3.175 µM and 5.721 µM
same,Free HRO761 blood concentration,"[1]; 120mg/kg, 4 h, single mouse",0.693 µM and 0.631 µM
same,Free HRO761 blood concentration,"[1]; 120mg/kg, 8 h, single mouse",0.515 µM and 0.718 µM
same,Free HRO761 blood concentration,"[1]; 120mg/kg, 24 h, single mouse",0.210 µM and 0.035 µM and 0.095 µM
same,concentration at 4 h,"[1]; mouse, oral, 20 mg/kg, 20mg/kg po, qd, 4 h, single mouse",0.176 µM
same,concentration at 8 h,"[1]; mouse, oral, 20 mg/kg, 20mg/kg po, qd, 8 h, single mouse",0.154 µM
same,concentration at 0.5 h,"[1]; mouse, oral, 20 mg/kg, Mean, 20mg/kg po, qd, 0.5 h",1.16 µM
same,concentration at 1 h,"[1]; mouse, oral, 20 mg/kg, Mean, 20mg/kg po, qd, 1 h",0.67 µM
same,concentration at 2 h,"[1]; mouse, oral, 20 mg/kg, Mean, 20mg/kg po, qd, 2 h",0.17 µM
same,concentration at 4 h,"[1]; mouse, oral, 20 mg/kg, Mean, 20mg/kg po, qd, 4 h",0.14 µM
same,concentration at 8 h,"[1]; mouse, oral, 20 mg/kg, Mean, 20mg/kg po, qd, 8 h",0.14 µM
same,concentration at 24 h,"[1]; mouse, oral, 20 mg/kg, Mean, 20mg/kg po, qd, 24 h",0.00515 µM
same,concentration at 0.5 h,"[1]; mouse, oral, 40 mg/kg, Mean, 0.5 h",3.14 µM
same,concentration at 1 h,"[1]; mouse, oral, 40 mg/kg, Mean, 1 h",1.86 µM
same,concentration at 2 h,"[1]; mouse, oral, 40 mg/kg, Mean, 2 h",0.32 µM
same,concentration at 4 h,"[1]; mouse, oral, 40 mg/kg, Mean, 4 h",0.13 µM
same,concentration at 8 h,"[1]; mouse, oral, 40 mg/kg, Mean, 8 h",0.2 µM
same,concentration at 24 h,"[1]; mouse, oral, 40 mg/kg, Mean, 24 h",0.0129 µM
same,concentration at 0.5 h,"[1]; mouse, oral, 40 mg/kg, 0.5 h, single mouse",2.91 µM
same,concentration at 1 h,"[1]; mouse, oral, 40 mg/kg, 1 h, single mouse",1.89 µM
same,concentration at 4 h,"[1]; mouse, oral, 40 mg/kg, 4 h, single mouse",0.124 µM
same,concentration at 8 h,"[1]; mouse, oral, 40 mg/kg, 8 h, single mouse",0.178 µM
same,concentration at 0.5 h,"[1]; mouse, oral, 60 mg/kg, Mean, 0.5 h",7.86 µM
same,concentration at 1 h,"[1]; mouse, oral, 60 mg/kg, Mean, 1 h",4.48 µM
same,concentration at 2 h,"[1]; mouse, oral, 60 mg/kg, Mean, 2 h",0.9 µM
same,concentration at 4 h,"[1]; mouse, oral, 60 mg/kg, Mean, 4 h",0.32 µM
same,concentration at 8 h,"[1]; mouse, oral, 60 mg/kg, Mean, 8 h",0.25 µM
same,concentration at 24 h,"[1]; mouse, oral, 60 mg/kg, Mean, 24 h",0.0322 µM
same,concentration at 8 h,"[1]; mouse, oral, 60 mg/kg, 8 h, single mouse",0.276 µM
same,concentration at 0.5 h,"[1]; mouse, oral, 120 mg/kg, Mean, 0.5 h",15.9 µM
same,concentration at 1 h,"[1]; mouse, oral, 120 mg/kg, Mean, 1 h",13.9 µM
same,concentration at 2 h,"[1]; mouse, oral, 120 mg/kg, Mean, 2 h",4.01 µM
same,concentration at 4 h,"[1]; mouse, oral, 120 mg/kg, Mean, 4 h",0.61 µM
same,concentration at 8 h,"[1]; mouse, oral, 120 mg/kg, Mean, 8 h",0.62 µM
same,concentration at 24 h,"[1]; mouse, oral, 120 mg/kg, Mean, 24 h",0.11 µM
same,concentration at 0.5 h,"[1]; mouse, oral, 120 mg/kg, 0.5 h, single mouse",14.8 µM
same,concentration at 1 h,"[1]; mouse, oral, 120 mg/kg, 1 h, single mouse",13.5 µM
same,concentration at 2 h,"[1]; mouse, oral, 120 mg/kg, 2 h, single mouse",3.12 µM
same,concentration at 4 h,"[1]; mouse, oral, 120 mg/kg, 4 h, single mouse",0.496 µM
same,concentration at 8 h,"[1]; mouse, oral, 120 mg/kg, 8 h, single mouse",0.62 µM
same,AUC,"[1]; mouse, po, 10 mg/kg, read-out: AUCb, u above GI90, u",0.09 µM·h
same,AUC,"[1]; mouse, po, 20 mg/kg, read-out: AUCb, u above GI90, u",0.52 µM·h
same,AUC,"[1]; mouse, po, 30 mg/kg, read-out: AUCb, u above GI90, u",2.14 µM·h
same,AUC,"[1]; mouse, po, 40 mg/kg, read-out: AUCb, u above GI90, u",4 µM·h
same,AUC,"[1]; mouse, po, 60 mg/kg, read-out: AUCb, u above GI90, u",6.08 µM·h
same,AUC,"[1]; mouse, po, 120 mg/kg, read-out: AUCb, u above GI90, u",27 µM·h
same,AUC,"[1]; oral, mouse at 40 mg/kg qd, read-out: Efficacious daily AUC",31 µM·h
